Values of other authors in US20120009125A1, “APOE4 AND APOJ BIOMARKER-BASED PREVENTION AND TREATMENT OF DEMENTIA” (priority 2010, published 2012).
Like-named read-outs stand apart in the source and are kept apart here.

Columns and labels:
HSPs = conditions: oral administration
Hsp70, Hsp90, and Hsp105 = conditions: cell model

CC(=O)CC/C=C(\C)CC/C=C(\C)CC/C=C(\C)CCC=C(C)C [GGA, (9E;13E)-6,10,14,18-tetramethyl-5,9,13,17-nonadecatetraen-2-one]
solubility in water: practically insoluble | expression of HSPs in the central nervous system (HSPs): up-regulated | cell death (cell model): inhibited | amyloid oligomer levels and aggregates (amyloid oligomer): reduces | amyloid oligomer levels and aggregates (amyloid oligomer; oral administration): reduces | levels of Hsp70, Hsp90, and Hsp105 (Hsp70, Hsp90, and Hsp105): increased
